Laboratory results: patent US20230257372A1 (CHONG KUN DANG PHARMACEUTICAL CORP., priority 2020, published 2023)
Read-outs that look alike come from different tables or passages of the source.

Assays:
[1] = molecular target: T1, human recombinant HDAC1 (Homo sapiens, UniProt Q13547); assay: HDAC1 enzyme activity inhibition (HDAC Fluorimetric Drug Discovery Kit); format: biochemical; settings: read-out: HDAC1
T1 construct: purchased Enzo Life Science, Inc. BML-SE456
In short: (§1)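 Fluorimetric deacetylase read-out: after 30 min with Developer II following a 60 min, 30° C reaction of recombinant enzyme ([…]) with 10 μM substrate, across five-fold serial compound dilutions.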

[2] = molecular target: T2, human recombinant HDAC6 (Homo sapiens, UniProt Q9UBN7); assay: HDAC6 enzyme activity inhibition (HDAC Fluorimetric Drug Discovery Kit); format: biochemical
T2 construct: purchased Calbiochem Inc. 382180
T2 sequence (Q9UBN7 1-1215): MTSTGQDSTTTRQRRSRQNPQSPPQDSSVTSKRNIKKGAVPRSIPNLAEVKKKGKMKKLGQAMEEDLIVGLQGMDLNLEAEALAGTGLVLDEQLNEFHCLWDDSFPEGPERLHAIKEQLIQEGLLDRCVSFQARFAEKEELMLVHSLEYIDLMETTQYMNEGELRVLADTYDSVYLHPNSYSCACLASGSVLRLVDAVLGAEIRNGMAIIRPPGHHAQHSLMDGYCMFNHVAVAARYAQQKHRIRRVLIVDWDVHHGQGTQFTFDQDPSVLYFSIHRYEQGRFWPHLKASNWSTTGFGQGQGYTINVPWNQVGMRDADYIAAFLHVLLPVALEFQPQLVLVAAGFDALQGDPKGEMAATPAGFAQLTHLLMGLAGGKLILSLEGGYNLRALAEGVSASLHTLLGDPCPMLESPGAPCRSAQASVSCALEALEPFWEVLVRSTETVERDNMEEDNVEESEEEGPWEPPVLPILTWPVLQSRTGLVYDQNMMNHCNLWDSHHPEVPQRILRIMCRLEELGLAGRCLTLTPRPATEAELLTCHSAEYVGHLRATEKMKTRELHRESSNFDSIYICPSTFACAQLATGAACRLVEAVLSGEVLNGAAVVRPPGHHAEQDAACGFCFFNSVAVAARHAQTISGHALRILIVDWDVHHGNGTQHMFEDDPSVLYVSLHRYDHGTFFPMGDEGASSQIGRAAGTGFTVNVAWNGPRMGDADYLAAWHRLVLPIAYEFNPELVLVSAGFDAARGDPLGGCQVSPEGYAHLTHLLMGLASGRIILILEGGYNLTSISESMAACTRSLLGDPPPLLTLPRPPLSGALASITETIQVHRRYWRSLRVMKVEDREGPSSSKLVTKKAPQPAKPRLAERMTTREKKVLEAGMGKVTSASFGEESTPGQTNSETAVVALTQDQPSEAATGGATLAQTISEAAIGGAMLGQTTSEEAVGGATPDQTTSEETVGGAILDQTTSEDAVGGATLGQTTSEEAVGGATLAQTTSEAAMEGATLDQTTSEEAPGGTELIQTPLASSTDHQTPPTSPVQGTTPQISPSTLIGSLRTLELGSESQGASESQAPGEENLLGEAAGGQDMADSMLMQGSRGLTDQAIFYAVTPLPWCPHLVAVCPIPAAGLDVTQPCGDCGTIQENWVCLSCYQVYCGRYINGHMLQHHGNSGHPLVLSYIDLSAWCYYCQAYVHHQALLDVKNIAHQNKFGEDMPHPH
In short: as §1

[3] = human recombinant HDAC1, IC50 calculated with GraphPad Prism
[4] = human recombinant HDAC6, IC50 calculated with GraphPad Prism
[5] = human recombinant HDAC1, Fluor de Lys substrate, 30° C. 60 minutes
[6] = human recombinant HDAC6, same protocol as HDAC1

T1 sequence (Q13547 whole entry): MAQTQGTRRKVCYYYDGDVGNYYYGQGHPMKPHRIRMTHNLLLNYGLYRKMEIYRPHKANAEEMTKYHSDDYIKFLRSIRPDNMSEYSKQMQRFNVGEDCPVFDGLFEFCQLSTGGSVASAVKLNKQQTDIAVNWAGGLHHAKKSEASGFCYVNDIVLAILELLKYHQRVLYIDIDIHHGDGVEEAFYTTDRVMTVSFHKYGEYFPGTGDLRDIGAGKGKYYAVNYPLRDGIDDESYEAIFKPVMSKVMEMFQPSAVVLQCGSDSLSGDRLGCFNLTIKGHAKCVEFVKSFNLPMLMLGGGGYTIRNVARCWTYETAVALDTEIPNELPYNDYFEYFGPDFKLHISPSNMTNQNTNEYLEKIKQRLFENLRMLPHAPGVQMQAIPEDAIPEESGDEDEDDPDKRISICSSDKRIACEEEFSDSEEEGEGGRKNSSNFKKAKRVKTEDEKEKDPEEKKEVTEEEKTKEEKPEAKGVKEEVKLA

| Compound | IC50 [1, 3] [nM] | HDAC6 selectivity (fold) ([2]; HDAC1 IC50 / HDAC6 IC50) | IC50 [2, 4] [nM] | IC50 [1, 5] [nM] | HDAC6 selectivity (fold) ([2]; HDAC6 over HDAC1) | IC50 [2, 6] [nM] |
| --- | --- | --- | --- | --- | --- | --- |
| Cc1ccc(-c2cn(Cc3ccc(-c4nnc(C(F)F)o4)cc3F)nn2)cc1 [Compound 3733, 2-(difluoromethyl)-5-(3-fluoro-4-((4-(p-tolyl)-1H-1,2,3-triazol-1-yl)methyl)phenyl)-1,3,4-oxadiazole] | > 50000 | 215 | 232 |  |  |  |
| FC(F)c1nnc(-c2ccc(Cn3cc(-c4cccnc4)nn3)nc2)o1 [Compound 3835, 2-(difluoromethyl)-5-(6-((4-(pyridin-3-yl)-1H-1,2,3-triazol-1-yl)methyl)pyridin-3-yl)-1,3,4-oxadiazole] | > 50000 | 1170 | 42.7 |  |  |  |
| FC(F)c1nnc(-c2ccc(Cn3cc(-c4cccc5c4CN(C4COC4)C5)nn3)cc2)o1 [Compound 4533, 2-(difluoromethyl)-5-(4-((4-(2-(oxetan-3-yl)isoindolin-4-yl)-1H-1,2,3-triazol-1-yl)methyl)phenyl)-1,3,4-oxadiazole] |  |  |  | > 50000 | 318 | 157 |
| CCN1CCN(c2cccc(-c3cn(Cc4ccc(-c5nnc(C(F)F)o5)cn4)nn3)c2F)CC1 [Compound 4570, 2-(difluoromethyl)-5-(6-((4-(3-(4-ethylpiperazin-1-yl)-2-fluorophenyl)-1H-1,2,3-triazol-1-yl)methyl)pyridin-3-yl)-1,3,4-oxadiazole] |  |  |  | > 50000 | 2475 | 20.2 |
| FC(F)c1nnc(-c2ccc(Cn3cc(-c4ccc(CNC5COC5)cc4)nn3)cc2)o1 [Compound 4556, N-(4-(1-(4-(5-(difluoromethyl)-1,3,4-oxadiazol-2-yl)benzyl)-1H-1,2,3-triazol-4-yl)benzyl)oxetan-3-amine] |  |  |  | > 50000 | 682 | 73.3 |
| FC(F)c1nnc(-c2ccc(Cn3cc(C4CN(C5COC5)C4)nn3)nc2)o1 [Compound 3955, 2-(difluoromethyl)-5-(6-((4-(1-(oxetan-3-yl)azetidin-3-yl)-1H-1,2,3-triazol-1-yl)methyl)pyridin-3-yl)-1,3,4-oxadiazole] | > 50000 | 95 | 522 |  |  |  |
| CCN1CC(N2CCC(c3cccc(-c4cn(Cc5ccc(-c6nnc(C(F)F)o6)cc5F)nn4)c3)CC2)C1 [Compound 4295, 2-(difluoromethyl)-5-(4-((4-(3-(1-(1-ethylazetidin-3-yl)piperidin-4-yl)phenyl)-1H-1,2,3-triazol-1-yl)methyl)-3-fluorophenyl)-1,3,4-oxadiazole] | > 50000 | 1106 | 45.2 |  |  |  |
| CN1CC(NCc2ccc(-c3cn(Cc4ccc(-c5nnc(C(F)F)o5)cn4)nn3)cc2)C1 [Compound 4567, N-(4-(1-((5-(5-(difluoromethyl)-1,3,4-oxadiazol-2-yl)pyridin-2-yl)methyl)-1H-1,2,3-triazol-4-yl)benzyl)-1-methylazetidin-3-amine] |  |  |  | > 50000 | 1333 | 37.5 |
| CC(=O)N1CCCC(c2cn(Cc3ccc(-c4nnc(C(F)F)o4)cn3)nn2)C1 (stereo not drawn) [Compound 4004, 1-(3-(1-((5-(5-(difluoromethyl)-1,3,4-oxadiazol-2-yl)pyridin-2-yl)methyl)-1H-1,2,3-triazol-4-yl)piperidin-1-yl)ethan-1-one] | > 50000 | 150 | 332 |  |  |  |
| C[C@@H]1CN(c2cccc(-c3cn(Cc4ncc(-c5nnc(C(F)F)o5)cc4F)nn3)c2)C[C@H](C)N1C [Compound 18961, 2-(difluoromethyl)-5-(5-fluoro-6-((4-(3-((3R,5S)-3,4,5-trimethylpiperazin-1-yl)phenyl)-1H-1,2,3-triazol-1-yl)methyl)pyridin-3-yl)-1,3,4-oxadiazole] |  |  |  | > 50000 | 782 | 63.9 |
| CC(C)N1CCN(Cc2cccc(-c3cn(Cc4ccc(-c5nnc(C(F)F)o5)cc4F)nn3)c2)CC1 [Compound 4408] | > 50000 | 970 | 51.5 |  |  |  |
| Fc1cc(-c2nnc(C(F)F)o2)ccc1Cn1cc(-c2ccc(CN3CC[C@@H](F)C3)cc2)nn1 [Compound 4607, (R)-2-(difluoromethyl)-5-(3-fluoro-4-((4-(4-((3-fluoropyrrolidin-1-yl)methyl)phenyl)-1H-1,2,3-triazol-1-yl)methyl)phenyl)-1,3,4-oxadiazole] |  |  |  | > 50000 | 2512 | 19.9 |
| CCN1CCN(c2cc(-c3cn(Cc4ccc(-c5nnc(C(F)F)o5)cn4)nn3)ccn2)CC1 [Compound 4591, 2-(difluoromethyl)-5-(6-((4-(2-(4-ethylpiperazin-1-yl)pyridin-4-yl)-1H-1,2,3-triazol-1-yl)methyl)pyridin-3-yl)-1,3,4-oxadiazole] |  |  |  | > 50000 | 3546 | 14.1 |
| CC(C)(C)OC(=O)N1CCC(F)(c2cn(Cc3ccc(-c4nnc(C(F)F)o4)cn3)nn2)CC1 [Compound 3999, Tert-butyl 4-(1-((5-(5-(difluoromethyl)-1,3,4-oxadiazol-2-yl)pyridin-2-yl)methyl)-1H-1,2,3-triazol-4-yl)-4-fluoropiperidin-1-carboxylate] | > 50000 | 575 | 86.9 |  |  |  |
| C[C@@H]1CN(c2cccc(-c3cn(Cc4ccc(-c5nnc(C(F)F)o5)cc4F)nn3)c2)C[C@H](C)N1 [Compound 4439, 2-(difluoromethyl)-5-(4-((4-(3-((3R,5S)-3,5-dimethylpiperazin-1-yl)phenyl)-1H-1,2,3-triazol-1-yl)methyl)-3-fluorophenyl)-1,3,4-oxadiazole] | > 50000 | 1831 | 27.3 |  |  |  |
| Fc1cc(-c2nnc(C(F)F)o2)ccc1Cn1cc(-c2ccc(CN3CCCC3)c(Cl)c2)nn1 [Compound 18713, 2-(4-((4-(3-chloro-4-(pyrrolidin-1-ylmethyl)phenyl)-1H-1,2,3-triazol-1-yl)methyl)-3-fluorophenyl)-5-(difluoromethyl)-1,3,4-oxadiazole] |  |  |  | > 50000 | 685 | 72.9 |
| OC1(c2cn(Cc3ccc(-c4nnc(C(F)F)o4)cc3F)nn2)CCOC1 (stereo not drawn) [Compound 4279, 3-(1-(4-(5-(difluoromethyl)-1,3,4-oxadiazol-2-yl)-2-fluorobenzyl)-1H-1,2,3-triazol-4-yl)tetrahydrofuran-3-ol] | > 50000 | 182 | 274 |  |  |  |
| Fc1cc(-c2nnc(C(F)F)o2)ccc1Cn1cc(-c2csc(CN3CCC3)c2)nn1 [Compound 18178, 2-(4-((4-(5-(azetidin-1-ylmethyl)thiophen-3-yl)-1H-1,2,3-triazol-1-yl)methyl)-3-fluorophenyl)-5-(difluoromethyl)-1,3,4-oxadiazole] |  |  |  | > 50000 | 657 | 76.1 |
| Fc1cc(-c2nnc(C(F)F)o2)ccc1Cn1cc(-c2ccc3c(c2)CCN(C2CN(C4CCC4)C2)C3)nn1 [Compound 4394, 2-(4-((4-(2-(1-cyclobutylazetidin-3-yl)-1,2,3,4-tetrahydroisoquinolin-6-yl)-1H-1,2,3-triazol-1-yl)methyl)-3-fluorophenyl)-5-(difluoromethyl)-1,3,4-oxadiazole] | > 50000 | 706 | 70.8 |  |  |  |
| Fc1cc(-c2nnc(C(F)F)o2)ccc1Cn1cc(-c2ccc3c(c2)CN(C2CCC2)C3)nn1 [Compound 4518, 2-(4-((4-(2-cyclobutylisoindolin-5-yl)-1H-1,2,3-triazol-1-yl)methyl)-3-fluorophenyl)-5-(difluoromethyl)-1,3,4-oxadiazole] |  |  |  | > 50000 | 986 | 50.7 |
